The text below walks through data of ChEMBL document CHEMBL1121983, “Conformational requirements for norepinephrine uptake inhibition by phenethylamines in brain synaptosomes. Effects of alpha-alkyl substitution” (J Med Chem, 1982).

SMILES strings stand for the structures. pIC50: −log10 of the molar value.

For the test, the species on record is Rattus norvegicus. In words: Inhibition of [3H]norepinephrine uptake was determined in rat brain synaptosomal preparation. It is filed as functional.
One may read the pIC50 as −log10 of the IC50, conventionally taken in molar units. Lower therefore signals a high IC50. For `N[C@H]1C=Cc2ccccc2C1` (racemic), the pIC50 was 6.19.
Regarding `CC[C@H](N)Cc1ccccc1` (racemic), the pIC50 is 5.19.
The compound `N[C@H]1CCc2ccccc2C1` (racemic) showed a negative-log IC50 (pIC50) of 6.07. This pIC50 lies 0.88 log units higher than the previous one.
On to `CC(N)Cc1ccccc1` (racemic), for which the pIC50 was 6.31.
